{"source": "patent US11643411B2", "about": "(priority 2015, dated 2023)", "key": {"human opioid κ receptor": {"target": "T1, human opioid κ receptor (Homo sapiens, UniProt P41145)", "T1 construct": "host or cells: CHO cells", "T1 sequence (P41145 whole entry)": "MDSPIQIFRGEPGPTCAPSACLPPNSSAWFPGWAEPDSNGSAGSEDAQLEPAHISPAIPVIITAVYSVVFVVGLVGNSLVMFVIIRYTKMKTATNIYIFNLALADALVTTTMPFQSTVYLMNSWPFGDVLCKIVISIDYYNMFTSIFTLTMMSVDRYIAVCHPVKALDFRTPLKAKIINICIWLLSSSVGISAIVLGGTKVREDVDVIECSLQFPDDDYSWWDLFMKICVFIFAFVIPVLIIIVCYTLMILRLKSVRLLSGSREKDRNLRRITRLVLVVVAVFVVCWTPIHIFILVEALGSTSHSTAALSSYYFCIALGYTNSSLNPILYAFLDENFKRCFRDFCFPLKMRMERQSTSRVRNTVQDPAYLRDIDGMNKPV", "assay": "cell-based"}, "hERG channel": {"target": "T2, hERG channel (Homo sapiens, UniProt Q12809)", "T2 construct": "host or cells: CHO cells", "T2 sequence (Q12809 whole entry)": "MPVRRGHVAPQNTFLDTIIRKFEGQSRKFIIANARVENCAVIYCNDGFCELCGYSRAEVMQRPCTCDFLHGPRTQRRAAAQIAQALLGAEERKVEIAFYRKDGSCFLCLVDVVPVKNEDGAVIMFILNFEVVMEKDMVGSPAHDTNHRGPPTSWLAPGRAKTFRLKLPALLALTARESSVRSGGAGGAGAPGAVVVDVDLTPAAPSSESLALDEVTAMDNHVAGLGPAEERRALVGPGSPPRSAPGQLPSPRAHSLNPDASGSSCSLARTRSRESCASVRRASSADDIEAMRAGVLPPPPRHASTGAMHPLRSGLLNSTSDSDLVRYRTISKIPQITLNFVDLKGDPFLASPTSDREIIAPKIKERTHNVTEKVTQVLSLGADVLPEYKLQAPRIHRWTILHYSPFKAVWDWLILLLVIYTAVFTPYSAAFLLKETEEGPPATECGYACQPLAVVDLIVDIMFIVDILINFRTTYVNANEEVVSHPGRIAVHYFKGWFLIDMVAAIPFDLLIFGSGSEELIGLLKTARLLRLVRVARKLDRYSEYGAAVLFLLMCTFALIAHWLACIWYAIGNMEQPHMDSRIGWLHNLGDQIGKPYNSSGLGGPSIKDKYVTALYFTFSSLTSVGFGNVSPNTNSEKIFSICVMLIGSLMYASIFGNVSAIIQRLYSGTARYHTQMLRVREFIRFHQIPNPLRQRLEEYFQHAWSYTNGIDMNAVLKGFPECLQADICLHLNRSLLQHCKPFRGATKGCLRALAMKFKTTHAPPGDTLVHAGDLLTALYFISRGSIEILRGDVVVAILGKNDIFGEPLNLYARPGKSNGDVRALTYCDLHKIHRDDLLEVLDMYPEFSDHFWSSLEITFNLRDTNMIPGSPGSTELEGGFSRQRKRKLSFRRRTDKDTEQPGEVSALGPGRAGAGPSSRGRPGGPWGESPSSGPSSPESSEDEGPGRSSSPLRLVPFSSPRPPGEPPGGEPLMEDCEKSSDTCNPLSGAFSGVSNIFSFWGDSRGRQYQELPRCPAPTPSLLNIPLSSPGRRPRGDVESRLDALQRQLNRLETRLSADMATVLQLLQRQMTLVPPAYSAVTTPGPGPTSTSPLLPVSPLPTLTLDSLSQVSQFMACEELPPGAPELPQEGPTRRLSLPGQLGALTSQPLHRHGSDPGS", "assay": "hERG potassium channel inhibition test (automatic patch clamp)", "format": "cell-based", "conditions": "10 μM, hERG channel-stably expressing CHO cells, tail current", "experimental": "The test was performed with Port-a-Patch automatic patch clump apparatus (Nanion Technologies) using hERG channel-stably expressing CHO cells (purchased from Channelopathy Foundation). The membrane potential of the cells was maintained at −80 mV, then there were applied a depolarization pulse at +20 mV for 1.5 seconds, and a following test pulse at −50 mV for 1.5 seconds at a frequency of 1 time per 10 seconds, and the hERG current was confirmed as a tail current induced by the test pulse. The test compound was dissolved in an extracellular fluid (137 mM NaCl, 4 mM KCl, 1.8 mM CaCl2, 1 mM MgCl2, 10 mM D(+)-glucose, 10 mM HEPES, pH 7.4), and the solution was refluxed at room temperature for 5 minutes. The inhibition ratio was obtained from the ratio of the tail current value observed after the compound was applied based on the tail current value observed before the compound was applied, which was taken as 100%."}, "OBX rats": {"tested_on": "OBX rats", "assay": "Hyperemotional reaction inhibition test using olfactory bulbectomized (OBX) rat", "format": "in vivo", "experimental": "According to the method of Saitoh et al. (Saitoh A, Yamada M, Yamada M, Takahashi K, Yamaguchi K, Murasawa H, Nakatani A, Tatsumi Y, Hirose N, and Kamei J: Antidepressant-like effects of the delta-opioid receptor agonist SNC80 ((+)-4-[(alphaR)-alpha-[(2S,5R)-2,5-dimethyl-4-(2-propenyl)-1-piperazinyl]-(3-methoxyphenyl)methyl]-N,N-diethylbenzamide) in an olfactory bulbectomized rat model, Brain Res., 2008, 1208160-169), OBX rats were prepared by extracting the rat olfactory bulbs, and then breeding the rats in an isolated circumstance. Hyperemotional reaction was evaluated on the day 14 after the surgical operation and before the division into groups, and 2 hours after the administration on the days 1, 4, 7, 10, and 14 of the administration period according to the hyperemotional reaction evaluation criteria prepared by Gomita et al. (Gomita et al., Behavioral pharmacological and electroencephalographical studies of 7-chloro-1-methyl-5-phenyl-1H-1,5-benzodiazepine-2,4-(3H,5H:)-dione (Clobazam), Folia Pharmacologica Japonica, 82, 267 (1983)). The drug was subcutaneously administered once a day continuously over 14 days. As a positive control drug, fluoxetine, which is a selective serotonin reuptake inhibitor (SSRI), was used. As the solvent, a 1% cyclodextrin (CD) was used."}, "SD male rats": {"tested_on": "SD male rats", "assay": "Rat cerebral infarction-induced overactive bladder model (cystometry)", "format": "in vivo", "experimental": "A transient middle cerebral artery occlusion model was prepared by using 8 weeks old SD male rats under isoflurane inhalation anesthesia. On the next day, the cervix was slightly cut open again under the isoflurane inhalation anesthesia, and a catheter for administration was fixed in the jugular vein, and led to the back. A cystometry operation was also performed, and the other end of a cannula inserted into the bladder was led to the back, and connected to a cannula swivel.\nOn the day 4 after the cerebral ischemia operation, cystometry was performed under no anesthesia and with no restraint. Intravesical pressure was measured for the stable period, then a medium was intravenously administered, and the value of the pressure was measured over about 30 minutes as a value before test substance administration. Then, the test substance was cumulatively and intravenously administered from the lowest dose at intervals of about 30 minutes, and the value was measured for about 30 minutes after each administration. For the rats determined to show pollakiuria (urination interval was 10 minutes or shorter) in the measurement before the administration, static intravesical pressure, pressure at the time of urination, urination interval, and single urination amount were measured at each time point."}, "human opioid μ receptor": {"target": "T3, human opioid μ receptor (Homo sapiens, UniProt P35372)", "T3 construct": "host or cells: CHO cells", "T3 sequence (P35372 whole entry)": "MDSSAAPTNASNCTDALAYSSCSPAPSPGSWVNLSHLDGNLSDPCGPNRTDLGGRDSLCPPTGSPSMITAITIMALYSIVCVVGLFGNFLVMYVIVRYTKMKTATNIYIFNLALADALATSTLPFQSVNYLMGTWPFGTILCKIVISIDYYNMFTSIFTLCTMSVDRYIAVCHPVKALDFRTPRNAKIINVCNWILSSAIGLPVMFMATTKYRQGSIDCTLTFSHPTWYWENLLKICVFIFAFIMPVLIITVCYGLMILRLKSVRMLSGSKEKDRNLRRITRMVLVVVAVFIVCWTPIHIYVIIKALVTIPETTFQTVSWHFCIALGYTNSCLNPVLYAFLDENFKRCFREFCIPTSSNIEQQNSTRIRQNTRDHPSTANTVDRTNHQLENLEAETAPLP", "assay": "Opioid receptor function test (Lance Ultra cAMP Kit), μ receptor", "format": "cell-based"}, "C57BL/6N male mice": {"tested_on": "C57BL/6N male mice", "assay": "Mouse elevated plus maze test", "format": "in vivo", "conditions": "subcutaneous, dose not stated (FIGS. 3 to 5)", "experimental": "For the test, 5 to 6 weeks old C57BL/6N male mice were used. On a plus maze apparatus consisting of a wall-less running route (open arm, width 6 cm, length 30 cm) and a running route with a wall (closed arm, width 6 cm, length 30 cm, height of wall 15 cm), and having a height of 40 cm, a mouse was put so as to be directed to the running route with a wall, and allowed to spontaneously enter into the plus maze. Each test substance was dissolved in saline or 0.005 N HCl in saline, and subcutaneously administered on the back 30 minutes before the start of the test. At the time of the start of the test, video recording with a video camera was started, the time at which the mouse entered into the plus maze is considered to be the start of the test, and exploratory behavior was recorded for 5 minutes. On the basis of the video image, staying time in the running routes were determined, and wall-less running route staying time ratio (%) was calculated."}, "[1]": {"conditions": "read-out: κ receptor Emax, starred: reaction rate at the maximum concentration (reference value)"}, "[2]": {"conditions": "read-out: μ receptor Emax, starred: reaction rate at the maximum concentration (reference value)"}}, "note": "Where a name gives a salt, the structure may show the parent alone. Read-outs that look alike come from different tables or passages of the source. Marks after values point to notes of the source that are not given here.", "data": [{"compound": "CCn1cc(C(=O)N2C[C@H]3C[C@@]45CC[C@@H]2[C@@H]3[C@@]42CCN(CC3CC3)[C@@H]5Cc3ccc(O)cc32)ccc1=O", "note": "[Example 28, 5-((1S,3aR,5aS,6R,11bR,11cS)-14-(cyclopropylmethyl)-10-hydroxy-2,3,3a,4,5,6,7,11c-octahydro-1H-6,11b-(epiminoethano)-1,5a-methanonaphtho[1,2-e]indole-3-carbonyl)-1-ethylpyridin-2(1H)-one]", "values": [{"measurement": "Emax", "setting": "human opioid κ receptor; read-out: κ receptor Emax", "result": 13, "unit": "%"}]}, {"compound": "O=C(c1cc(=O)cc[nH]1)N1C[C@H]2C[C@@]34CC[C@@H]1[C@@H]2[C@@]31CCN(CC2CC2)[C@@H]4Cc2ccc(O)cc21", "note": "[Example 14, 2-((1S,3aR,5aS,6R,11bR,11cS)-14-(cyclopropylmethyl)-10-hydroxy-2,3,3a,4,5,6,7,11c-octahydro-1H-6,11b-(epiminoethano)-1,5a-methanonaphtho[1,2-e]indole-3-carbonyl)pyridin-4(1H)-one]", "values": [{"measurement": "Emax", "setting": "human opioid κ receptor; [1]", "result": 6.7, "unit": "%"}]}, {"compound": "O=C(c1cccc(=O)[nH]1)N1C[C@H]2C[C@@]34CC[C@@H]1[C@@H]2[C@@]31CCN(CC2CC2)[C@@H]4Cc2ccc(O)cc21", "note": "[Example 7, 6-((1S,3aR,5aS,6R,11bR,11cS)-14-(cyclopropylmethyl)-10-hydroxy-2,3,3a,4,5,6,7,11c-octahydro-1H-6,11b-(epiminoethano)-1,5a-methanonaphtho[1,2-e]indole-3-carbonyl)pyridin-2(1H)-one]", "values": [{"measurement": "Emax", "setting": "human opioid κ receptor; [1]", "result": -0.9, "unit": "%"}, {"measurement": "hERG channel inhibitory action", "setting": "hERG channel", "result": "<50", "unit": "%"}, {"measurement": "hyperemotional reactions compared with the sham surgery group", "setting": "OBX rats; 0.1 mg/kg s.c. once a day, on the day 7 of the administration period", "result": "restored the condition even to a level comparable to that of the rats of the sham surgery group"}, {"measurement": "hyperemotional reactions compared with the sham surgery group", "setting": "OBX rats; 1 mg/kg s.c. once a day, on the day 4 of the administration period", "result": "restored the condition even to a level comparable to that of the rats of the sham surgery group"}, {"measurement": "single urination amount (in words)", "setting": "SD male rats; 0.01 and 0.1 mg/kg i.v.", "result": "dose-dependently increasing tendency"}, {"measurement": "urination interval (in words)", "setting": "SD male rats; 0.01 and 0.1 mg/kg i.v.", "result": "dose-dependently increasing tendency"}, {"measurement": "pressure at the time of urination (in words)", "setting": "SD male rats; at all the doses", "result": "did not affect"}, {"measurement": "static intravesical pressure (in words)", "setting": "SD male rats; at all the doses", "result": "did not affect"}]}, {"compound": "Cn1cccc(C(=O)N2C[C@H]3C[C@@]45CC[C@@H]2[C@@H]3[C@@]42CCN(CC3CC3)[C@@H]5Cc3ccc(O)cc32)c1=O", "note": "[Example 31, 3-((1S,3aR,5aS,6R,11bR,11cS)-14-(cyclopropylmethyl)-10-hydroxy-2,3,3a,4,5,6,7,11c-octahydro-1H-6,11b-(epiminoethano)-1,5a-methanonaphtho[1,2-e]indole-3-carbonyl)-1-methylpyridin-2(1H)-one hydrochloride]", "values": [{"measurement": "Emax", "setting": "human opioid κ receptor; maximum reaction not reached, at maximum concentration (10 μM), U-69593 = 100%", "result": "3.2* %"}]}, {"compound": "O=C(c1ccc[n+]([O-])c1)N1C[C@H]2C[C@@]34CC[C@@H]1[C@@H]2[C@@]31CCN(CC2CC2)[C@@H]4Cc2ccc(O)cc21", "note": "[Example 4, 3-((1S,3aR,5aS,6R,11bR,11cS)-14-(cyclopropylmethyl)-10-hydroxy-2,3,3a,4,5,6,7,11c-octahydro-1H-6,11b-(epiminoethano)-1,5a-methanonaphtho[1,2-e]indole-3-carbonyl)pyridine 1-oxide]", "values": [{"measurement": "Emax", "setting": "human opioid μ receptor; [2]", "result": 5.5, "unit": "%"}]}, {"compound": "Cn1cccc(C(=O)N2C[C@H]3C[C@@]45CC[C@@H]2[C@@H]3[C@@]42CCN(CC3CC3)[C@@H]5Cc3ccc(O)cc32)c1=O", "note": "[Example 6, 3-((1S,3aR,5aS,6R,11bR,11cS)-14-(cyclopropylmethyl)-10-hydroxy-2,3,3a,4,5,6,7,11c-octahydro-1H-6,11b-(epiminoethano)-1,5a-methanonaphtho[1,2-e]indole-3-carbonyl)-1-methylpyridin-2(1H)-one]", "values": [{"measurement": "Emax", "setting": "human opioid κ receptor; [1]", "result": 3.2, "unit": "%"}]}, {"compound": "O=C(c1cc(=O)cco1)N1C[C@H]2C[C@@]34CC[C@@H]1[C@@H]2[C@@]31CCN(CC2CC2)[C@@H]4Cc2ccc(O)cc21", "note": "[Example 19, 2-((1S,3aR,5aS,6R,11bR,11cS)-14-(cyclopropylmethyl)-10-hydroxy-2,3,3a,4,5,6,7,11c-octahydro-1H-6,11b-(epiminoethano)-1,5a-methanonaphtho[1,2-e]indole-3-carbonyl)-4H-pyran-4-one]", "values": [{"measurement": "Emax", "setting": "human opioid κ receptor; [1]", "result": 0.6, "unit": "%"}]}, {"compound": "O=C(c1cccc[n+]1[O-])N1C[C@H]2C[C@@]34CC[C@@H]1[C@@H]2[C@@]31CCN(CC2CC2)[C@@H]4Cc2ccc(O)cc21", "note": "[Example 1, 2-((1S,3aR,5aS,6R,11bR,11cS)-14-(cyclopropylmethyl)-10-hydroxy-2,3,3a,4,5,6,7,11c-octahydro-1H-6,11b-(epiminoethano)-1,5a-methanonaphtho[1,2-e]indole-3-carbonyl)pyridine 1-oxide]", "values": [{"measurement": "Emax", "setting": "human opioid μ receptor; [2]", "result": 8.3, "unit": "%"}, {"measurement": "hERG channel inhibitory action", "setting": "hERG channel", "result": "<50", "unit": "%"}]}, {"compound": "Cn1cc(C(=O)N2C[C@H]3C[C@@]45CC[C@@H]2[C@@H]3[C@@]42CCN(CC3CC3)[C@@H]5Cc3ccc(O)cc32)ccc1=O", "note": "[Example 9, 5-((1S,3aR,5aS,6R,11bR,11cS)-14-(cyclopropylmethyl)-10-hydroxy-2,3,3a,4,5,6,7,11c-octahydro-1H-6,11b-(epiminoethano)-1,5a-methanonaphtho[1,2-e]indole-3-carbonyl)-1-methylpyridin-2(1H)-one]", "values": [{"measurement": "Emax", "setting": "human opioid μ receptor; ratio to maximum reaction of control drug DAMGO taken as 100%, read-out: μ receptor Emax", "result": 16, "unit": "%"}, {"measurement": "wall-less running route staying time ratio", "setting": "C57BL/6N male mice", "result": "showed a tendency of increasing"}, {"measurement": "hERG channel inhibitory action", "setting": "hERG channel", "result": "<50", "unit": "%"}]}, {"compound": "O=C(c1ccc[nH]c1=O)N1C[C@H]2C[C@@]34CC[C@@H]1[C@@H]2[C@@]31CCN(CC2CC2)[C@@H]4Cc2ccc(O)cc21", "note": "[Example 3, 3-((1S,3aR,5aS,6R,11bR,11cS)-14-(cyclopropylmethyl)-10-hydroxy-2,3,3a,4,5,6,7,11c-octahydro-1H-6,11b-(epiminoethano)-1,5a-methanonaphtho[1,2-e]indole-3-carbonyl)pyridin-2(1H)-one]", "values": [{"measurement": "wall-less running route staying time ratio", "setting": "C57BL/6N male mice", "result": "showed a tendency of increasing"}, {"measurement": "hERG channel inhibitory action", "setting": "hERG channel", "result": "<50", "unit": "%"}]}, {"compound": "O=C(c1cc[nH]c(=O)c1)N1C[C@H]2C[C@@]34CC[C@@H]1[C@@H]2[C@@]31CCN(CC2CC2)[C@@H]4Cc2ccc(O)cc21", "note": "[Example 11, 4-((1S,3aR,5aS,6R,11bR,11cS)-14-(cyclopropylmethyl)-10-hydroxy-2,3,3a,4,5,6,7,11c-octahydro-1H-6,11b-(epiminoethano)-1,5a-methanonaphtho[1,2-e]indole-3-carbonyl)pyridin-2(1H)-one]", "values": [{"measurement": "Emax", "setting": "human opioid κ receptor; [1]", "result": -2.5, "unit": "%"}]}, {"compound": "Cn1c(C(=O)N2C[C@H]3C[C@@]45CC[C@@H]2[C@@H]3[C@@]42CCN(CC3CC3)[C@@H]5Cc3ccc(O)cc32)cccc1=O", "note": "[Example 10, 6-((1S,3aR,5aS,6R,11bR,11cS)-14-(cyclopropylmethyl)-10-hydroxy-2,3,3a,4,5,6,7,11c-octahydro-1H-6,11b-(epiminoethano)-1,5a-methanonaphtho[1,2-e]indole-3-carbonyl)-1-methylpyridin-2(1H)-one]", "values": [{"measurement": "Emax", "setting": "human opioid μ receptor; [2]", "result": 6, "unit": "%"}, {"measurement": "Emax", "setting": "human opioid κ receptor; [1]", "result": -0.7, "unit": "%"}, {"measurement": "wall-less running route staying time ratio", "setting": "C57BL/6N male mice", "result": "showed a tendency of increasing"}, {"measurement": "hERG channel inhibitory action", "setting": "hERG channel", "result": "<50", "unit": "%"}]}]}
